Activity calls are given as the source filed them. The calls are words filed in the database; no cut-off is given here. *1 amine or outer side, *2 acyl side, *3 side chain or, on linkers, in order; H or OH if unused. Where a SMILES comes first, the peptide text is derived from it. [ ]: non-standard residue; d: D form. X1 = Cc1oc([C@H](Cc2ccccc2)N[*:1])nc1C(=O)[*:2]; X3 = CC[C@H](C)[C@H](N[*:1])c1nc(C(=O)[*:2])co1; X2 = Cc1oc([C@H](C)N[*:1])nc1C(=O)[*:2]
How the values were obtained:
MCF7 = test: Cytotoxicity against human MCF7 cells measured after 72 hrs by MTT assay; format: functional, cell-based; details: MCF7, 72 h
[1] = Metal chelating activity assessed as Fe3+ complex formation at 89 uM measured after 45 mins by CAS assay; format: functional
NCI-H460 = test: Cytotoxicity against human NCI-H460 cells measured after 72 hrs by MTT assay; format: functional, cell-based; details: NCI-H460, 72 h
[2] = Metal chelating activity assessed as Fe3+ complex formation measured after 45 mins by CAS assay; format: functional

Row | Structure (SMILES) | IC50 (MCF7) [µM] | Activity [1] | IC50 (NCI-H460) [µM] | IC50 [2] [µM]
1 | CC[C@H](C)[C@@H]1NC(=O)[C@@H]2CCCN2C(=O)[C@H](Cc2ccccc2)NC(=O)c2nc(oc2C)[C@H](C)NC(=O)c2nc(oc2C)[C@H](Cc2ccccc2)NC(=O)CNC(=O)[C@@H]2CCCN2C(=O)[C@@H]2CCCN2C(=O)[C@H](C)NC(=O)c2coc1n2 (cyclo(APPG[X1][X2]FP[X3])) | 0.58 | inactive | 1 | –
2 | CC(=O)N(O)CCCCCNC(=O)CCC(=O)N(O)CCCCCNC(=O)CCC(=O)N(O)CCCCCN [DEFEROXAMINE] | – | – | – | 5.1

Source: ChEMBL document CHEMBL4477179, “Wewakazole B, a Cytotoxic Cyanobactin from the Cyanobacterium Moorea producens Collected in the Red Sea” (J Nat Prod, 2016)
